Experimental data reported in ChEMBL document CHEMBL5050834, “Cyclic trex1 inhibitors” (2021).

Assay: Inhibition of human TREX1 exonuclease activity using labeled DNA oligonucleotide as substrate incubated for 30 mins and measured after 45 mins by fluorescence assay

SMILES | IC50
N#CC[C@H](C(=O)NCc1ccc(Cl)cn1)N1CCC(CCc2ccccc2)N2C[C@H](N)C[C@H]2C1=O (some centres not stated) | < 1000 nM
Cc1ccc(OCC2CCN([C@H](CCC(=O)O)C(=O)NCc3ccc(Cl)c(Cl)c3)C(=O)[C@@H]3C[C@@H](N)CN23)cc1 (some centres not stated) | in the range around 1000 nM
COc1c(CNC(=O)[C@@H](CCC#N)N2CCC(CCc3ccccc3)N3C[C@H](N)C[C@H]3C2=O)ccc(Cl)c1Cl (some centres not stated) | < 1000 nM
CCOC(=O)CC[C@H](C(=O)NCc1ccc(Cl)c(Cl)c1F)N1CCC(CCc2ccccc2)N2C[C@H](N)C[C@H]2C1=O (some centres not stated) | < 1000 nM
N[C@@H]1C[C@H]2C(=O)N([C@H]3CCCN(S(=O)(=O)c4ccc(Cl)c(Cl)c4)C3)CCC(CCc3ccccc3)N2C1 (some centres not stated) | in the range around 1000 nM
N[C@@H]1C[C@H]2C(=O)N([C@H](CS(=O)(=O)c3ccccc3O)C(=O)NCc3ccc(Cl)c(Cl)c3)CCC(CCc3ccccc3)N2C1 (some centres not stated) | < 1000 nM
N#CC[C@H](C(=O)N1CCOC[C@H]1c1ccccc1)N1CCC(CCc2ccccc2)N2C[C@H](N)C[C@H]2C1=O (some centres not stated) | in the range around 1000 nM
N[C@@H]1C[C@H]2C(=O)N(c3cccn(Cc4ccc(Cl)c(Cl)c4)c3=O)CCC(CCc3ccccc3)N2C1 (some centres not stated) | < 1000 nM
N[C@@H]1C[C@H]2C(=O)N([C@H](CCC(=O)O)C(=O)N3CCC[C@H]3c3ccc(Cl)c(Cl)c3)CCC(CCc3ccccc3)N2C1 (some centres not stated) | < 1000 nM
N[C@@H]1C[C@H]2C(=O)N([C@H]3CCN(Cc4ccc(Cl)c(Cl)c4)C3=O)CCC(CCc3ccccc3)N2C1 (some centres not stated) | < 1000 nM
N[C@@H]1C[C@H]2C(=O)N([C@H](CCC(=O)O)C(=O)NCc3ccc(Cl)c(Cl)c3)CCC(COc3ccccc3Cl)N2C1 (some centres not stated) | < 1000 nM
N[C@@H]1C[C@H]2C(=O)N([C@@H](CCC(=O)O)C(=O)NCc3ccc(Cl)c(Cl)c3)CCC(CCc3ccccc3)N2C1 (some centres not stated) | < 1000 nM
N[C@@H]1C[C@H]2C(=O)N([C@H](CCC(=O)O)C(=O)NCc3ccc(Cl)c(Cl)c3)CCC(COc3cccc(F)c3)N2C1 (some centres not stated) | < 1000 nM
COC(=O)CC[C@H](C(=O)NCc1ccc(Cl)cn1)N1CCC(CCc2ccccc2)N2C[C@H](N)C[C@H]2C1=O (some centres not stated) | < 1000 nM
COc1c(CNC(=O)[C@@H](CCc2nnn[nH]2)N2CCC(CCc3ccccc3)N3C[C@H](N)C[C@H]3C2=O)ccc(Cl)c1Cl (some centres not stated) | < 1000 nM
COC(=O)CC[C@H](C(=O)NCc1ccc(Cl)c(Cl)c1)N1CCC(COc2ccc(F)cc2)N2C[C@H](N)C[C@H]2C1=O (mixture of isomers) | < 1000 nM
CC(C)C[C@H](C(=O)NCc1ccc(Cl)c(C(F)(F)F)c1)N1CCC(CCc2ccccc2)N2C[C@H](N)C[C@H]2C1=O (some centres not stated) | < 1000 nM
CCOC(=O)CC[C@H](C(=O)NCc1ccc(Cl)c(Cl)c1)N1CCC(CCc2ccccc2)N2C[C@H](N)C[C@H]2C1=O (some centres not stated) | < 1000 nM
COc1ccc(CNC(=O)[C@@H](CC(C)C)N2CCC(CCc3ccccc3)N3C[C@H](N)C[C@H]3C2=O)cc1Cl (some centres not stated) | < 1000 nM
CC(C)Oc1c(CNC(=O)[C@@H](CCc2nnn[nH]2)N2CCC(CCc3ccccc3)N3C[C@H](N)C[C@H]3C2=O)ccc(Cl)c1Cl (some centres not stated) | < 1000 nM
N[C@@H]1C[C@H]2C(=O)N([C@@H]3CCCN(Cc4ccc(Cl)c(Cl)c4)C3=O)CCC(CCc3ccccc3)N2C1 (some centres not stated) | < 1000 nM
N#CC[C@H](C(=O)NCc1ccc(Cl)c(Cl)c1)N1CCC(CCc2ccccc2)N2C[C@H](N)C[C@H]2C1=O (some centres not stated) | < 1000 nM
COC(=O)CC[C@H](C(=O)NCc1ccc(Cl)c(Cl)c1)N1CCC(CCc2ccccc2)N2C[C@H](N)C[C@H]2C1=O (some centres not stated) | < 1000 nM
N#CCC[C@H](C(=O)NCc1ccc(Cl)c(Cl)[n+]1[O-])N1CCC(CCc2ccccc2)N2C[C@H](N)C[C@H]2C1=O (some centres not stated) | < 1000 nM

SMILES | IC50
N#CC[C@H](C(=O)NCc1ccc(Cl)c(Cl)n1)N1CCC(CCc2ccccc2)N2C[C@H](N)C[C@H]2C1=O (some centres not stated) | < 1000 nM
N[C@@H]1C[C@H]2C(=O)N([C@H](CCC(=O)O)C(=O)NCc3ccc(Cl)c(Cl)c3)CCC(COc3ccc(F)cc3)N2C1 (some centres not stated) | < 1000 nM
N#CC[C@H](C(=O)N1CCc2cc(Cl)c(Cl)cc2C1)N1CCC(CCc2ccccc2)N2C[C@H](N)C[C@H]2C1=O (some centres not stated) | in the range around 1000 nM
COc1cc(Cl)c(Cl)cc1CNC(=O)[C@@H](CCC(=O)O)N1CCC(CCc2ccccc2)N2C[C@H](N)C[C@H]2C1=O (some centres not stated) | < 1000 nM
CC(C)C[C@H](C(=O)N[C@@H](C)c1ccccc1)N1CCC(CCc2ccccc2)N2C[C@H](N)C[C@H]2C1=O (some centres not stated) | in the range around 1000 nM
N[C@@H]1C[C@H]2C(=O)N([C@H](CCC(=O)O)C(=O)NCc3ccc(Cl)c(Cl)n3)CCC(CCc3ccccc3)N2C1 (some centres not stated) | < 1000 nM
CCOC(=O)CC[C@H](C(=O)N1CCC[C@H]1c1ccc(Cl)c(Cl)c1)N1CCC(CCc2ccccc2)N2C[C@H](N)C[C@H]2C1=O (mixture of isomers) | < 1000 nM
CC(C)Oc1c(CNC(=O)[C@@H](CCC(=O)O)N2CCC(CCc3ccccc3)N3C[C@H](N)C[C@H]3C2=O)ccc(Cl)c1Cl (some centres not stated) | < 1000 nM
N[C@@H]1C[C@H]2C(=O)N([C@H](CCNC(=O)C3CC3)C(=O)NCc3ccc(Cl)c(Cl)c3)CCC(CCc3ccccc3)N2C1 (some centres not stated) | < 1000 nM
CC(C)C[C@H](CNS(=O)(=O)c1ccc(Cl)c(Cl)c1)N1CCC(CCc2ccccc2)N2C[C@H](N)C[C@H]2C1=O (some centres not stated) | < 1000 nM
NC(=O)C[C@H](C(=O)NCc1ccc(Cl)c(Cl)n1)N1CCC(CCc2ccccc2)N2C[C@H](N)C[C@H]2C1=O (some centres not stated) | < 1000 nM
N[C@@H]1C[C@H]2C(=O)N([C@@H]3CCCN(S(=O)(=O)c4ccc(Cl)c(Cl)c4)C3)CCC(CCc3ccccc3)N2C1 (some centres not stated) | < 1000 nM
CCOC(=O)CC[C@H](C(=O)NCc1cc(Cl)c(Cl)cn1)N1CCC(CCc2ccccc2)N2C[C@H](N)C[C@H]2C1=O (some centres not stated) | < 1000 nM
N[C@@H]1C[C@H]2C(=O)N([C@H](CCC(=O)NO)C(=O)NCc3ccc(Cl)c(Cl)c3)CCC(CCc3ccccc3)N2C1 (some centres not stated) | < 1000 nM
CCOc1c(CNC(=O)[C@@H](CCC(=O)O)N2CCC(CCc3ccccc3)N3C[C@H](N)C[C@H]3C2=O)ccc(Cl)c1Cl (some centres not stated) | < 1000 nM
NC(=O)CC[C@H](C(=O)N1Cc2cc(Cl)c(Cl)cc2C1)N1CCC(CCc2ccccc2)N2C[C@H](N)C[C@H]2C1=O (some centres not stated) | in the range around 10000 nM
N[C@@H]1C[C@H]2C(=O)N([C@H](CCC(=O)O)C(=O)NCc3ccc(Cl)c(Cl)c3)CCC(COc3ccc(Cl)cc3)N2C1 (some centres not stated) | < 1000 nM
N[C@@H]1C[C@H]2C(=O)N([C@H](CCC(=O)NO)C(=O)NCc3ccc(Cl)c(Cl)c3)CCC(COc3ccc(F)cc3)N2C1 (some centres not stated) | < 1000 nM
CCOC(=O)CC[C@H](C(=O)N1CCCC[C@H]1c1ccc(Cl)c(Cl)c1)N1CCC(CCc2ccccc2)N2C[C@H](N)C[C@H]2C1=O (some centres not stated) | < 1000 nM
N#CC[C@H](C(=O)N1CCOC[C@@H]1c1ccccc1)N1CCC(CCc2ccccc2)N2C[C@H](N)C[C@H]2C1=O (some centres not stated) | in the range around 10000 nM
N[C@@H]1C[C@H]2C(=O)N([C@H](CCC(=O)O)C(=O)NCc3ccc(Cl)c(Cl)c3)CCC(COc3cccc(Cl)c3)N2C1 (some centres not stated) | < 1000 nM
N=C(N)NCCC[C@H](C(=O)NCc1ccc(Cl)c(Cl)c1)N1CCC(CCc2ccccc2)N2C[C@H](N)C[C@H]2C1=O (some centres not stated) | < 1000 nM
N#CCC[C@H](C(=O)NCc1ccc(Cl)c(Cl)c1F)N1CCC(CCc2ccccc2)N2C[C@H](N)C[C@H]2C1=O (some centres not stated) | < 1000 nM
